According to ChEMBL document CHEMBL1201862, “PubChem BioAssay data set” (2004):
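Cultured in 96-well plates, cells were exposed to test compound for 48 hours across five concentrations. GI50 is the concentration that inhibits growth by half.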 The source made the active and inactive calls. No stated cut-off is given here; in the data, active = GI50 up to about 1.1 µM and inactive = higher.

Tests used:
Experiment in all cases: DTP human tumour cell line panel, 48 h
786-0 = test system: 786-0
A549 = test system: A549
CCRF-CEM = test system: CCRF-CEM
HCT-116 = test system: HCT-116
LOX IMVI = test system: LOX IMVI
MOLT-4 = test system: MOLT-4
NCI/ADR-RES = test system: NCI/ADR-RES
OVCAR-4 = test system: OVCAR-4
RPMI-8226 = test system: RPMI-8226
SK-MEL-28 = test system: SK-MEL-28
SK-MEL-2 = test system: SK-MEL-2
SK-MEL-5 = test system: SK-MEL-5
SK-OV-3 = test system: SK-OV-3
SW-620 = test system: SW-620
T47D = test system: T47D
UO-31 = test system: UO-31
OVCAR-8 = test system: OVCAR-8
TK-10 = test system: TK-10
UACC-257 = test system: UACC-257
SF-539 = test system: SF-539

Measured: GI50

C#CCCCC(=C)C[C@@H]1OC(=O)[C@H](C)[C@@H]1O
inactive: 786-0 > 100 µM | A549 > 100 µM | CCRF-CEM > 100 µM | HCT-116 > 100 µM | LOX IMVI > 100 µM | MOLT-4 > 100 µM | NCI/ADR-RES > 100 µM | OVCAR-4 > 100 µM | RPMI-8226 > 100 µM | SK-MEL-28 > 100 µM | SK-MEL-2 > 100 µM | SK-MEL-5 > 100 µM | SK-OV-3 > 100 µM | SW-620 > 100 µM | T47D > 100 µM | UO-31 > 100 µM

O=S(=O)(c1ccc(Br)cc1)n1c2ccc(Br)cc2c2nc3ccccc3nc21
inactive: 786-0 31.6 µM | A549 > 100 µM | CCRF-CEM 14.1 µM | HCT-116 > 100 µM | LOX IMVI > 100 µM | MOLT-4 > 100 µM | NCI/ADR-RES > 100 µM | OVCAR-4 67.9 µM | OVCAR-8 55.5 µM | RPMI-8226 > 100 µM | SK-MEL-28 > 100 µM | SK-MEL-2 57.5 µM | SK-MEL-5 > 100 µM | SK-OV-3 52 µM | SW-620 > 100 µM | T47D 61.8 µM | TK-10 82 µM | UACC-257 > 100 µM | UO-31 > 100 µM

CN(C)CCNC(=O)Cn1cc([N+](=O)[O-])c(=O)c2ccccc21
inactive: 786-0 > 100 µM | A549 > 100 µM | CCRF-CEM > 100 µM | HCT-116 > 100 µM | MOLT-4 > 100 µM | NCI/ADR-RES > 100 µM | OVCAR-8 > 100 µM | SF-539 > 100 µM | SK-MEL-28 > 100 µM | SK-MEL-2 > 100 µM | SK-MEL-5 > 100 µM | SK-OV-3 > 100 µM | SW-620 > 100 µM | T47D > 100 µM | TK-10 > 100 µM | UACC-257 > 100 µM | UO-31 > 100 µM

C/C=C1\CN(C(=O)OC(C)(C)C)C1C(=O)OC(C)(C)C (configuration not stated)
inactive: 786-0 > 100 µM | A549 > 100 µM | CCRF-CEM > 100 µM | HCT-116 > 100 µM | LOX IMVI > 100 µM | MOLT-4 > 100 µM | NCI/ADR-RES > 100 µM | OVCAR-4 53.6 µM | OVCAR-8 > 100 µM | RPMI-8226 68.7 µM | SF-539 > 100 µM | SK-MEL-28 > 100 µM | SK-MEL-2 > 100 µM | SK-MEL-5 > 100 µM | SK-OV-3 > 100 µM | SW-620 > 100 µM | TK-10 > 100 µM | UACC-257 > 100 µM | UO-31 63.7 µM

COc1ccccc1NCC(=O)Nn1c(C)nc2ccc(S(=O)(=O)Nc3ccccc3OC)cc2c1=O
inactive: 786-0 > 100 µM | A549 97.5 µM | CCRF-CEM 53.5 µM | HCT-116 > 100 µM | LOX IMVI > 100 µM | MOLT-4 > 100 µM | NCI/ADR-RES > 100 µM | OVCAR-4 > 100 µM | OVCAR-8 > 100 µM | RPMI-8226 > 100 µM | SF-539 > 100 µM | SK-MEL-28 > 100 µM | SK-MEL-2 > 100 µM | SK-OV-3 > 100 µM | SW-620 65.2 µM | TK-10 > 100 µM | UACC-257 > 100 µM | UO-31 > 100 µM

OCCN1CCN2C=C(C3CCCC4N(CCO)CCN34)CCC21 (configuration not stated)
inactive: 786-0 41.7 µM | A549 > 100 µM | CCRF-CEM 5.56 µM | HCT-116 24.9 µM | LOX IMVI 26.7 µM | MOLT-4 13.9 µM | OVCAR-4 52.8 µM | OVCAR-8 35.2 µM | RPMI-8226 8.04 µM | SF-539 33.7 µM | SK-MEL-28 42 µM | SK-MEL-2 23.5 µM | SK-MEL-5 41.9 µM | SK-OV-3 > 69.2 µM | SW-620 23.6 µM | TK-10 > 53.5 µM | UACC-257 > 100 µM | UO-31 97.3 µM

CCCC1CC(=O)NC(=O)C1C(=O)OC(C)(C)C (configuration not stated)
inactive: 786-0 > 100 µM | HCT-116 > 100 µM | LOX IMVI > 100 µM | MOLT-4 > 100 µM | NCI/ADR-RES > 100 µM | OVCAR-4 > 100 µM | OVCAR-8 > 100 µM | RPMI-8226 > 100 µM | SK-MEL-28 > 100 µM | SK-MEL-2 > 100 µM | SK-MEL-5 > 100 µM | SW-620 > 100 µM | T47D > 100 µM | TK-10 > 100 µM | UACC-257 > 100 µM | UO-31 > 100 µM

Cc1cc(C)c(N[S+]([O-])c2cccc([N+](=O)[O-])c2)c(C)c1 (configuration not stated)
inactive: 786-0 > 100 µM | A549 > 100 µM | CCRF-CEM > 100 µM | MOLT-4 > 100 µM | NCI/ADR-RES > 100 µM | OVCAR-8 > 100 µM | RPMI-8226 > 100 µM | SF-539 > 100 µM | SK-MEL-28 > 100 µM | SW-620 > 100 µM | T47D > 100 µM | TK-10 > 100 µM | UACC-257 > 100 µM | UO-31 > 100 µM

CCCCC1Cc2cc(O)ccc2-c2nc3cc(O)ccc3n21.CCCCC1Cc2cc(O)ccc2-c2nc3ccc(O)cc3n21 (configuration not stated)
inactive: 786-0 19 µM | A549 16.3 µM | CCRF-CEM 19.2 µM | HCT-116 14 µM | LOX IMVI 16.8 µM | MOLT-4 13.6 µM | NCI/ADR-RES 18.6 µM | OVCAR-4 7.45 µM | OVCAR-8 21.4 µM | RPMI-8226 12.4 µM | SF-539 14.8 µM | SK-MEL-5 13.5 µM | SK-OV-3 18.5 µM | SW-620 16.9 µM | T47D 19.9 µM | TK-10 18.6 µM | UACC-257 15.8 µM | UO-31 13.1 µM

O=C(Nn1c(-c2ccccc2)nc2ccccc2c1=O)c1ccccc1O
inactive: 786-0 65.2 µM | A549 36.8 µM | CCRF-CEM 25.2 µM | HCT-116 33.5 µM | LOX IMVI 48.6 µM | MOLT-4 24 µM | NCI/ADR-RES 34.4 µM | OVCAR-4 30.7 µM | OVCAR-8 38.5 µM | RPMI-8226 51.5 µM | SF-539 33.7 µM | SK-MEL-28 39.3 µM | SK-MEL-5 19.4 µM | SK-OV-3 58.9 µM | SW-620 41.2 µM | T47D 42.3 µM | TK-10 75.9 µM | UACC-257 45.6 µM | UO-31 36.7 µM

Cc1cccc(Nc2cn(COCc3ccccc3)c(=O)[nH]c2=O)c1
inactive: 786-0 > 100 µM | A549 > 100 µM | CCRF-CEM > 100 µM | HCT-116 90.8 µM | LOX IMVI 56.2 µM | MOLT-4 > 100 µM | NCI/ADR-RES 14.4 µM | OVCAR-4 41.5 µM | RPMI-8226 38.8 µM | SK-MEL-28 > 100 µM | SK-MEL-5 > 100 µM | SW-620 > 100 µM | UACC-257 > 100 µM | UO-31 > 100 µM

CCN(CC)CCCOc1cc2c(cc1OC)C(=O)N1CCC[C@H]1C=N2
inactive: 786-0 30.5 µM | A549 > 100 µM | CCRF-CEM 33.2 µM | HCT-116 32.4 µM | LOX IMVI 16.4 µM | MOLT-4 19.5 µM | NCI/ADR-RES > 100 µM | OVCAR-4 8.38 µM | OVCAR-8 40.8 µM | RPMI-8226 21.1 µM | SF-539 42.7 µM | SK-MEL-28 18.1 µM | SK-MEL-2 46 µM | SK-MEL-5 19.6 µM | SK-OV-3 39.7 µM | SW-620 17.2 µM | TK-10 61.8 µM | UACC-257 53.7 µM | UO-31 39.9 µM
